Test results published in ChEMBL document CHEMBL5316348, “Targeting the Epidermal Growth Factor Receptor with Molecular Degraders: State-of-the-Art and Future Opportunities” (J Med Chem, 2023).
Values belong to the compound of their own block, whether it stands above or below them.

How the values were obtained:
[1] = target: T1, von Hippel-Lindau disease tumor suppressor/Epidermal growth factor receptor (Homo sapiens, UniProt P00533+P40337); test: Protac activity at VHL/EGFR deletion19 mutant in human HCC827 cells assessed as induction of protein degradation incubated for 24 hrs by immunoblotting analysis; format: cell-based
T1 sequence (P00533 25-1210 limits assumed, stated change not applied): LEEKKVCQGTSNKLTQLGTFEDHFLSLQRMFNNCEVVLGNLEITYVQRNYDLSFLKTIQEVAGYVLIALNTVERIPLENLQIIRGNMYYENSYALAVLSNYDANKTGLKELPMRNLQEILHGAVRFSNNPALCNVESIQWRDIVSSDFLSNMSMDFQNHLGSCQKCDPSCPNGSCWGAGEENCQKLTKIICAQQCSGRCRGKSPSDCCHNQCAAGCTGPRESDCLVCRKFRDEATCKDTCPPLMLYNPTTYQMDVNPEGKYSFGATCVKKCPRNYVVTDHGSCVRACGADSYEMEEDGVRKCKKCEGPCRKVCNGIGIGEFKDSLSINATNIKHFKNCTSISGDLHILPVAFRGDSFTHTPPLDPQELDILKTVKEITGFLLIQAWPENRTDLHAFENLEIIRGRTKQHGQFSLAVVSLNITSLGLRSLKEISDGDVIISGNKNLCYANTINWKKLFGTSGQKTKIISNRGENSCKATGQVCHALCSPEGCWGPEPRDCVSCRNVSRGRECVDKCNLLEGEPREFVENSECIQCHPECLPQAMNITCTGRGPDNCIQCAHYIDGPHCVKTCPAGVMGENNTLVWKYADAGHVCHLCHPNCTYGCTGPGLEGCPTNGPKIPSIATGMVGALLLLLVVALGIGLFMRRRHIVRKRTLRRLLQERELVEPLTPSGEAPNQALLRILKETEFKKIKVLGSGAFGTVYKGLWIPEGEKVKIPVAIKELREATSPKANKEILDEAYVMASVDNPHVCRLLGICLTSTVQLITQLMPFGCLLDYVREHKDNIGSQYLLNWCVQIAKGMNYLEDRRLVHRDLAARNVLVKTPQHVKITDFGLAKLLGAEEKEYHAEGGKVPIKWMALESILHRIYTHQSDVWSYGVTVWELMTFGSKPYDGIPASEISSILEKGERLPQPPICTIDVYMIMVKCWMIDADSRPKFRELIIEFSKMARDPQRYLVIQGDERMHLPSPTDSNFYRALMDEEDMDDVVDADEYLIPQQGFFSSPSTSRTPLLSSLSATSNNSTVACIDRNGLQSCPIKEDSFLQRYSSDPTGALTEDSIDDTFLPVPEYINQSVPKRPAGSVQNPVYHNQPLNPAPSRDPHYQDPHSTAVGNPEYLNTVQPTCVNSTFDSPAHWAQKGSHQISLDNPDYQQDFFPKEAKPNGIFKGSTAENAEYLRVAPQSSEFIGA
T1 sequence (P40337 whole entry, stated change not applied): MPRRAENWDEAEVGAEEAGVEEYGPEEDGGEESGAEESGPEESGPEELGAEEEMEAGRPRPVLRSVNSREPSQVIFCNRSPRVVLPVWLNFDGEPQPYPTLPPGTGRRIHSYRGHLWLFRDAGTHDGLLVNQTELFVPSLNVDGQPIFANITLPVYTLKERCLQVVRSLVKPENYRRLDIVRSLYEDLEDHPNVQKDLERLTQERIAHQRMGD

[2] = target: von Hippel-Lindau disease tumor suppressor/Epidermal growth factor receptor (Homo sapiens, UniProt P00533+P40337, L858R); test: Protac activity at VHL/EGFR L858R mutant in human NCI-H3255 cells assessed as induction of protein degradation incubated for 24 hrs by immunoblotting analysis; format: cell-based
[3] = tested on: von Hippel-Lindau disease tumor suppressor/Epidermal growth factor receptor (Homo sapiens), P00533+P40337 [UNDEFINED MUTATION]; test: Protac activity at VHL/EGFR deletion19 mutant in human HCC827 cells assessed as induction of protein degradation by measuring maximal efficacy incubated for 24 hrs by immunoblotting analysis relative to control; format: cell-based
Sequence of von Hippel-Lindau disease tumor suppressor/Epidermal growth factor receptor (Homo sapiens), P00533+P40337 [UNDEFINED MUTATION] (P00533 whole entry, looked up, stated change not applied): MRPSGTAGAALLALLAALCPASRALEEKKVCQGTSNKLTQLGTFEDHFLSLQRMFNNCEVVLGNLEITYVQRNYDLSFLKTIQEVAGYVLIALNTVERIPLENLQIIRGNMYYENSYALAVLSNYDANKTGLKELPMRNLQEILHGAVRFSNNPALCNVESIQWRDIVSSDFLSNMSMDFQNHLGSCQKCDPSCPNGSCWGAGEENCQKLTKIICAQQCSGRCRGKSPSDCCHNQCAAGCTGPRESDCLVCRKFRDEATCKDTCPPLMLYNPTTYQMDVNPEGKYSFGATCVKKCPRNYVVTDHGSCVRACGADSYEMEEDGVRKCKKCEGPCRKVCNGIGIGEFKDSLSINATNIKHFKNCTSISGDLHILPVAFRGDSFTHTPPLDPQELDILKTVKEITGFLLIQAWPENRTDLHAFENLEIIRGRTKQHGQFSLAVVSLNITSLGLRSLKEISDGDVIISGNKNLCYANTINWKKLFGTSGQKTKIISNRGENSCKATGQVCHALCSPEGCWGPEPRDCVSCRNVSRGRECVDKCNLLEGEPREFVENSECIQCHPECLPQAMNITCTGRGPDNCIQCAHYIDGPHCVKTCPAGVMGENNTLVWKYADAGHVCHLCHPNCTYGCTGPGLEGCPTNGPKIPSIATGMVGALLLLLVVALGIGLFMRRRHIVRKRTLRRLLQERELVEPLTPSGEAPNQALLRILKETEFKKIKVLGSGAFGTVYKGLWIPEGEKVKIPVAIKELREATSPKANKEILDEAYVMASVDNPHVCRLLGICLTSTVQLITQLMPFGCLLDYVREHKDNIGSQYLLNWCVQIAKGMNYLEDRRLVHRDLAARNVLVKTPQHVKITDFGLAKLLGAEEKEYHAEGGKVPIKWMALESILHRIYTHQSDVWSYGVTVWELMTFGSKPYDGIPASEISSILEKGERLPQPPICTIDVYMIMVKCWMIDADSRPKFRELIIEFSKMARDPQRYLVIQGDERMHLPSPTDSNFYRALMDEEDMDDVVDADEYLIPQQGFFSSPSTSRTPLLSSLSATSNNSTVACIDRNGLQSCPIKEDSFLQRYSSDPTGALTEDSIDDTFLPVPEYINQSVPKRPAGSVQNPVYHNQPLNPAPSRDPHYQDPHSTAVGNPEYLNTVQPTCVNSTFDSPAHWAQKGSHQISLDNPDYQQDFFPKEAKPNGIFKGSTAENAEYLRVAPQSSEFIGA
Sequence of von Hippel-Lindau disease tumor suppressor/Epidermal growth factor receptor (Homo sapiens), P00533+P40337 [UNDEFINED MUTATION] (P40337 whole entry, looked up, stated change not applied): as the sequence (P40337 whole entry, stated change not applied) above

[4] = tested on: von Hippel-Lindau disease tumor suppressor/Epidermal growth factor receptor (Homo sapiens), P00533+P40337 [L858R]; test: Protac activity at VHL/EGFR L858R mutant in human NCI-H3255 cells assessed as induction of protein degradation by measuring maximal efficacy incubated for 24 hrs by immunoblotting analysis relative to control; format: cell-based
[5] = tested on: Protein cereblon/Epidermal growth factor receptor (Homo sapiens), P00533+Q96SW2 [L858R,T790M]; test: Protac activity at CRBN/EGFR L858R/T790M double mutant in mouse BaF3 cells assessed as induction of protein degradation at 0.1 uM measured after 24 hrs by Western blot analysis relative to control; format: cell-based
[6] = Oral bioavailability in mouse at 10 mg/kg; format: ADME, organism-based; conditions: in vivo
BaF3 [7] = test: Antitumor activity against mouse BaF3 cells expressing EGFR deletion19/T790M/C797S triple mutant implanted in CDX BALB/c nude mouse model assessed as reduction in tumor volume at 40 mg/kg, po relative to control; format: functional; design: scale not given: the % may be the effect or the level left
BaF3 [8] = test: Antitumor activity against mouse BaF3 cells expressing EGFR deletion19/T790M/C797S triple mutant implanted in […] BALB/c nude mouse model assessed as reduction in tumor volume at 40 mg/kg, po relative to control; format: functional; design: scale not given: the % may be the effect or the level left
[9] = target: Epidermal growth factor receptor (Homo sapiens, UniProt P00533); test: Inhibition of wild type EGFR (unknown origin) preincubated for 5 mins followed by substrate and ATP addition and further incubated for 30 mins by HTRF assay
[10] = target: Epidermal growth factor receptor (Homo sapiens, UniProt P00533, T790M)
Sequence of Epidermal growth factor receptor (Homo sapiens, UniProt P00533, T790M) (P00533 25-1210 T790M limits assumed): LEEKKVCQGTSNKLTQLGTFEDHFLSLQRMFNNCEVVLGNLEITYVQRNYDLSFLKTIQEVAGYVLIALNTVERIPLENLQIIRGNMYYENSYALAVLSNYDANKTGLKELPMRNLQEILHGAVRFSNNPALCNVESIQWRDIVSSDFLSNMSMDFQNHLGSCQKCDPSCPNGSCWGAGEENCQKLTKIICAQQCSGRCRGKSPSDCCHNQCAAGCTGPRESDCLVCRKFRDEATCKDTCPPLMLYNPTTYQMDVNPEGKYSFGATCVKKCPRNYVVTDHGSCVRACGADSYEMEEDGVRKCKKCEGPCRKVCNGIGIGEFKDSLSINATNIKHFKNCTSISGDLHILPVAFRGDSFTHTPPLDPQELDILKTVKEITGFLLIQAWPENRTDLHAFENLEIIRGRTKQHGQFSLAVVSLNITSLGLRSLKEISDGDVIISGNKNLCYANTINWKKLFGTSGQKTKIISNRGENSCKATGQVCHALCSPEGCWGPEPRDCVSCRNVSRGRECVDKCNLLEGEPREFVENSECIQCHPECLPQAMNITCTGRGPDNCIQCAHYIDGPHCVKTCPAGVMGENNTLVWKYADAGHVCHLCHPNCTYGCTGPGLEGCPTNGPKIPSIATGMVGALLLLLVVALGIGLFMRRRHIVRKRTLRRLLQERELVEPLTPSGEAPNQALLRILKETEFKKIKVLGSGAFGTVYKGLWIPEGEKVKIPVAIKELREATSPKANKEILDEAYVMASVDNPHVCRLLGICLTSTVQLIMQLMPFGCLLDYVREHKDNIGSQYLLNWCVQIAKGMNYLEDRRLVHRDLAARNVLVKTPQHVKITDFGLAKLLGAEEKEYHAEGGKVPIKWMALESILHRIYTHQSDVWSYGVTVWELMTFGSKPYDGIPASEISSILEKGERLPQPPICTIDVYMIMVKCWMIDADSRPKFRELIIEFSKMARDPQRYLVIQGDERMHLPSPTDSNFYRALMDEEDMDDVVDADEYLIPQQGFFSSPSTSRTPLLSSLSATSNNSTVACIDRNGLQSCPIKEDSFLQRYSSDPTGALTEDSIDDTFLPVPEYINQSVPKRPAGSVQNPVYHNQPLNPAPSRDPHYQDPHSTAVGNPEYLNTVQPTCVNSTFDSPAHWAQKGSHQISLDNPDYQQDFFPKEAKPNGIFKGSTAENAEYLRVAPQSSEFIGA

[11] = target: T2, Protein cereblon/Epidermal growth factor receptor (Homo sapiens, UniProt P00533+Q96SW2); test: Protac activity at CRBN/wild type EGFR in human A549 cells assessed as induction of EGFR degradation at 100 nM measured after 72 hrs by Western blot analysis relative to control; format: cell-based
[12] = target: T2, Protein cereblon/Epidermal growth factor receptor; test: Protac activity at CRBN/wild type EGFR in human A549 cells assessed as induction of EGFR degradation incubated for 48 hrs by Western blot analysis; format: cell-based
[13] = target: T1, von Hippel-Lindau disease tumor suppressor/Epidermal growth factor receptor; test: Protac activity at VHL/EGFR deletion19 mutant in human HCC827 cells assessed as induction of protein degradation; format: cell-based
[14] = tested on: von Hippel-Lindau disease tumor suppressor/Epidermal growth factor receptor (Homo sapiens), P00533+P40337 [UNDEFINED MUTATION]; test: Protac activity at VHL/EGFR deletion19 mutant in human HCC827 cells assessed as induction of protein degradation by measuring maximal efficacy relative to control; format: cell-based

Compound: COc1cc2ncnc(Nc3ccc(F)c(Cl)c3)c2cc1OCCCCCOCCOCCC(=O)N[C@H](C(=O)N1C[C@H](O)C[C@H]1C(=O)NCc1ccc(-c2scnc2C)cc1)C(C)(C)C
EC50 [1]: 11.7 nM
EC50 [2]: 22.3 nM
Emax [3]: 98.9%
Emax [4]: 96.6%

Compound: O=C1CCC(N2C(=O)c3cccc(NCCOCCOCCOCCN4CCN(c5ccc(-c6ccc7c(c6)C(=O)N(C(C(=O)Nc6nccs6)c6ccccc6)C7)cn5)CC4)c3C2=O)C(=O)N1 (centres undefined)
Emax [5]: 56%

bioavailability [6]: 62.8%
Compound: COc1cc(N2CCC(N3CCN(CCC#Cc4cccc5c4CN(C4CCC(=O)NC4=O)C5=O)CC3)CC2)ccc1Nc1ncc(Cl)c(Nc2ccccc2P(C)(C)=O)n1 (centres undefined)
Activity (BaF3 [7]): 84%
Activity (BaF3 [8]): 67%

IC50 [9]: 100 nM
IC50 [10]: 4020 nM
Compound: CN1C(=O)C(C(=O)NN)N(C)c2ccccc21 (centres undefined)

Emax [11]: 96%
EC50 [12]: 32.9 nM
Compound: Cn1c(=O)c(C(=O)NNCCOCCOCC(=O)Nc2cccc3c2C(=O)N(C2CCC(=O)NC2=O)C3=O)nc2ccccc21 (centres undefined)

Compound: Cc1ncsc1-c1ccc(CNC(=O)[C@@H]2C[C@@H](O)CN2C[C@@H](NC(=O)CCCCCCCCCCn2cc(COc3cc4ncnc(Nc5ccc(F)c(Cl)c5)c4cc3NC(=O)/C=C/CN3CCCCC3)nn2)C(C)(C)C)cc1
EC50 [13]: 3.57 nM
Emax [14]: 91%
